“Also recorded” adds a separate entry of the source. Square brackets hold non-standard residues; d marks the D form. Ends that are not written are not given here.

The first experiment concerns R4A anti-dsDNA monoclonal antibody. The experiment is described as follows: ELISA binding of monoclonal antibody R4A to phage clones. Also on record: species or system mouse. Particulars: R4A selected phage, Table 2. The method, then: (§1) FIG. 1 is comprised of FIGS. 1A, 1B and 1C, and depicts the binding by Enzyme Linked ImmunoSorbent Assay of monoclonal antibodies R4A (FIG. 1A), 95 (FIG. 1B) and 52b3 (FIG. 1C) to phage clones. In each figure, the shaded columns are R4A-selected phage and unshaded columns are 52b3-selected phage.
(§2) Binding of antibodies to phage was determined by Enzyme-Linked ImmunoSorbent Assay (ELISA). Microtiter plates (Becton Dickinson, Lincoln Park, N.J.) were coated with 50 μl of antibody (1 μg/ml unless otherwise specified) in TBS (Tris/10 mM HCl pH 7.5, 150 mM NaCl) overnight at 4° C. Plates were washed 3 times with TBS/0.05% TWEEN® 20. Approximately 2.5×10^10 purified phage in 50 μl TBS were added to each well, incubated for 2 hours at 37° C., washed, and then were blocked with 150 μl of TBS/2% BSA for 1 hour at 37° C. Plates were incubated with 50 μl of a 1:4000 dilution in TBS of biotinylated sheep antibody to M13 phage (5′->3′, Inc., Boulder, Colo.) for 1 hour at 37° C. Plates were washed again and incubated with a 1:4000 dilution of […] streptavidin (Southern Biotech. Assoc. Inc., Birmingham, Ala.) and developed with Sigma-104 substrate tablets (Sigma Chemical Co.). Optical density was read at 405 nm.
“D W D Y G A L M W A (DWDYGALMWA; displayed on phage; peptide (1)..(10) randomly-selected sequence obtained by biopanning a decapeptide library with R4A) [φ7-3]”: the “Binding O.D. 405 nm” value turned out to be 1.1. In the case of “D W E Y S V W L S N (DWEYSVWLSN; not fully specified (N-terminus, C-terminus)) [φ1-3]”, the “Binding O.D. 405 nm” value was 1.3. Still for that read-out and setting: then F S D C Y H S G C P [φ1-1], with 1.5; and “L Y F E D Y R C E L (LYFEDYRCEL; displayed on phage; peptide (1)..(10) randomly-selected sequence obtained by biopanning a decapeptide library with R4A) [φ7-6]”, with 1.2; and “S T E H S E A D L W (STEHSEADLW; displayed on phage; peptide (1)..(10) randomly-selected sequence obtained by biopanning a decapeptide library with R4A) [φ1-2]”, with 0.7.

On to “V P V C D W E L N C (VPVCDWELNC; displayed on phage; peptide (1)..(10) randomly-selected sequence obtained by biopanning a decapeptide library with R4A) [φ7-26]”, for which the “Binding O.D. 405 nm” value stood at 0.4. The same measure, in the same setting: then “W C E A D Y G R C P (WCEADYGRCP; displayed on phage; peptide (1)..(10) randomly-selected sequence obtained by biopanning a decapeptide library with R4A) [φ7-21]”, with 1.3; and “Y S D W D Y S E G L (YSDWDYSEGL; displayed on phage; peptide (1)..(10) randomly-selected sequence obtained by biopanning a decapeptide library with R4A) [φ1-10]”, with 1.1.

In the next experiment the test system is 52b3 anti-dsDNA monoclonal antibody. Nature of the experiment: ELISA binding of monoclonal antibody 52b3 to phage clones. Also on record: species or system mouse. Particulars: 52b3 selected phage, Table 3. The method, then:
as §1, §2
Turning to “C G V D G R W P R W (CGVDGRWPRW; displayed on phage; peptide (1)..(10) randomly-selected sequence obtained by biopanning a decapeptide library with 52b3) [φB23]”, the “Binding O.D. 405 nm” value was 1.5.

Consider “D G E W P R E G W S (DGEWPREGWS; displayed on phage; peptide (1)..(10) randomly-selected sequence obtained by biopanning a decapeptide library with 52b3) [φB56]”, for which the “Binding O.D. 405 nm” value is 1.6.

With “E D L E G E W P M R (EDLEGEWPMR; displayed on phage; peptide (1)..(10) randomly-selected sequence obtained by biopanning a decapeptide library with 52b3) [φB22]”, the “Binding O.D. 405 nm” value was determined as 1.5. In the case of “L L D D G F W P R V (LLDDGFWPRV; displayed on phage; peptide (1)..(10) randomly-selected sequence obtained by biopanning a decapeptide library with 52b3) [φB25]”, the “Binding O.D. 405 nm” value is listed as 1.5.

On to “R H E D G D W P R V (RHEDGDWPRV; not fully specified (N-terminus, C-terminus)) [φB11]”, for which the “Binding O.D. 405 nm” value is given as 1.4.

For the substance “S C Y Q S Y P G E C (SCYQSYPGEC; displayed on phage; peptide (1)..(10) randomly-selected sequence obtained by biopanning a decapeptide library with 52b3) [φB52]”, the “Binding O.D. 405 nm” value worked out at 1.8. As to “S L D E L D W D S M (SLDELDWDSM; displayed on phage; peptide (1)..(10) randomly-selected sequence obtained by biopanning a decapeptide library with 52b3) [φB1]”, the “Binding O.D. 405 nm” value came to 1.4. Regarding “S L I S D E W P R W (SLISDEWPRW; displayed on phage; peptide (1)..(10) randomly-selected sequence obtained by biopanning a decapeptide library with 52b3) [φB24]”, the “Binding O.D. 405 nm” value was determined as 1.3. Still for that read-out and setting: then “T W C P V W I W D C (TWCPVWIWDC; displayed on phage; peptide (1)..(10) randomly-selected sequence obtained by biopanning a decapeptide library with 52b3) [φB16]”, with 1.0; and “V L I C W D G C E T (VLICWDGCET; displayed on phage; peptide (1)..(10) randomly-selected sequence obtained by biopanning a decapeptide library with 52b3) [φB17]”, with 1.6. Same read-out and setting: as for “W D C Y V C R L E L (WDCYVCRLEL; displayed on phage; peptide (1)..(10) randomly-selected sequence obtained by biopanning a decapeptide library with 52b3) [φB21]”, the figure is 1.2.

A further experiment deals with R4A binding to dsDNA. Nature of the experiment: Peptide inhibition of R4A binding to dsDNA by ELISA. Also on record: species or system mouse. Particulars: fluid phase inhibitor, FIG. 3, FIG. 4. The method, then: FIG. 3 depicts peptide inhibition of R4A (1 μg/ml) binding to calf thymus double stranded DNA by Enzyme Linked ImmunoSorbent Assay.
FIG. 4 sets forth a graph representing DWEYS (L and D peptides) (SEQ ID NO:2) inhibition of R4A binding to dsDNA. IMMULON® II plates were coated overnight with 100 μg/ml salmon sperm dsDNA. R4A at a final concentration of 5 μg/ml was incubated at varying concentrations of L or D DWEYS (SEQ ID NO:2) and transferred to the plate precoated with dsDNA. After a 2-hr incubation at 37° C., the plates were washed, and alkaline phosphotase-linked goat anti-mouse IgG2b antibody was added for 1 hour at 37° C. OD after addition of substrate was monitored at 405 nm.
Take “DWEYS [D peptide DWEYS] (Ac-[dD][dW][dE][dY][dS]-NH2; SMILES CC(=O)N[C@H](CC(=O)O)C(=O)N[C@H](Cc1c[nH]c2ccccc12)C(=O)N[C@H](CCC(=O)O)C(=O)N[C@H](Cc1ccc(O)cc1)C(=O)N[C@H](CO)C(N)=O) [R4A-specific peptide DWEYS made from D amino acids]”: the “Inhibition of R4A binding to dsDNA” value was “inhibited the binding of R4A to dsDNA”. The same measure, in the same setting: then “DWEYS [L peptide DWEYS, R4A-specific L peptide DWEYS]”, with “showed greater maximal inhibition; also recorded: inhibited the binding of R4A to dsDNA; also recorded: inhibited dsDNA better than the D peptide in vitro”; and DWEYSVWLSN [R4A specific peptide], with “inhibited dsDNA binding by the appropriate antibody only”.

The next experiment relates to 52b3 binding to dsDNA. The experiment is described as follows: Peptide inhibition of 52b3 binding to dsDNA by ELISA. Also on record: species or system mouse. The note with it: fluid phase peptide, FIG. 3. Here is the method: To determine whether peptide and dsDNA bound within the same antigen binding site of each antibody, inhibition assays were performed with specific peptides. […] These were used in fluid phase to inhibit the binding of antibody to dsDNA. Two peptides, Asp-Trp-Glu-Tyr-Ser-Val-Trp-Leu-Ser-Asn (SEQ ID NO:1) and Asp-Trp-Glu-Tyr-Ser (SEQ ID NO:2), were chosen as the R4A specific epitope; the 52b3 specific peptide was Arg-His-Glu-Asp-Gly-Asp-Trp-Pro-Arg-Val (SEQ ID NO:7).
Regarding RHEDGDWPRV [52b3 specific peptide], the “Inhibition of 52b3 binding to dsDNA” value was “inhibited dsDNA binding by the appropriate antibody only”.

In a further experiment the test system is R4A deposition in glomeruli. Nature of the experiment: Assay of anti-dsDNA antibody (R4A) glomerular deposition in SCID mice. The experiment is classed as in vivo. The note with it: 75 μg R4A and 150 μg peptide i.p., IgG immunostaining, FIG. 5. Here is the method: FIG. 5 sets forth kidney sections exemplifying peptide inhibition of R4A deposition in glomeruli. R4A (75 μg) and peptide (150 μg) were injected i.p. into SCID mice. Mice were killed 16 hours later, and the kidneys immunostained for IgG deposition. […] FIG. 5B sets forth a representative section from a mouse injected with R4A, and the R4A- specific D peptide DWEYS (SEQ ID NO:2).
Glomerular deposition of the nephritogenic R4A antibody was examined by injecting purified antibody into SCID mice. R4A was obtained from cell culture supernatants or from ascites of mice injected with the cell line. Antibody was purified on a protein G column (Gamma Bind, Pharmacia). SCID mice were obtained from the breeding colony maintained at the Albert Einstein College of Medicine. Six- to eight-week old female mice were used in the experiments. Anti-dsDNA antibodies and IgG2b levels were undetectable in these mice before injection. Individual mice were simultaneously injected i.p. with 75 μg of purified R4A and 150 μg of the appropriate peptide. The mice were killed 16 hours after the injection of antibody.
One kidney from each animal was fixed in 10% formalin and embedded in paraffin. […]
In the case of “DWEYS [D peptide DWEYS] (Ac-[dD][dW][dE][dY][dS]-NH2; SMILES CC(=O)N[C@H](CC(=O)O)C(=O)N[C@H](Cc1c[nH]c2ccccc12)C(=O)N[C@H](CCC(=O)O)C(=O)N[C@H](Cc1ccc(O)cc1)C(=O)N[C@H](CO)C(N)=O) [R4A-specific peptide DWEYS made from D amino acids]”, the “Inhibition of R4A deposition in glomeruli / kidney” value is listed as “markedly inhibited the deposition of R4A in the kidney; also recorded: only the D peptide conferred renal protection in vivo”. Still for that read-out and setting: then “DWEYS [L peptide DWEYS, R4A-specific L peptide DWEYS]”, with “More anti-dsDNA antibody is present in glomeruli; also recorded: did not”.

For the next experiment, the target named is phage clone φ3-3, no insert (UniProt P03661). Nature of the experiment: phage ELISA, antibody coated, no-insert control phage added, anti-M13 detection.
Chain of UniProt P03661 (P03661 19-424 limits assumed): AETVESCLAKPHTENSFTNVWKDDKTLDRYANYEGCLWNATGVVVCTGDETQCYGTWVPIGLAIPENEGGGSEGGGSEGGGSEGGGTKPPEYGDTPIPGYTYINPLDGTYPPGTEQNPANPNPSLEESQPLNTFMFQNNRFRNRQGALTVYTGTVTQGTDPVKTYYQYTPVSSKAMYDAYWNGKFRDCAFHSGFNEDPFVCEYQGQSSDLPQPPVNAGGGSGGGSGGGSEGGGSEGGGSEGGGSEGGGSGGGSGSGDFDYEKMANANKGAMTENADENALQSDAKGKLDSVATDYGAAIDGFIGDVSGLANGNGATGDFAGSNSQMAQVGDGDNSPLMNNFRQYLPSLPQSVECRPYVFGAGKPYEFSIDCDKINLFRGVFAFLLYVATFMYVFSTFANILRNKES
Conditions: not given
On the technique in general: An ELISA detects its analyte on a solid surface through an enzyme-linked reagent.
As for “monoclonal antibody R4A (mouse anti-dsDNA antibody)”, the Binding O.D. 405 nm was 0.1 O.D. 405 nm.
